Assay results from patent publication US12384771B2, “Pleuromutilin derivative containing thiazole-pyridine benzyl quaternary ammonium salt side chain and preparation method and use thereof” (SHAANXI UNIVERSITY OF SCIENCE AND TECHNOLOGY, priority 2022, dated 2025).
In brackets after ≈: the same amount, converted by molar mass. Counter-ions that a name gives are not always drawn. Like-named read-outs stand apart in the source and are kept apart here.

How the values were obtained:
Type in all cases: cell-based
[1] = test system: carbapenem-resistant Acinetobacter baumannii (CR-AB) 18-560; assay: MIC, clinical drug-resistant bacteria; conditions: read-out: Minimum inhibitory concentration against clinical drug-resistant bacteria
Experimental: (§1) The minimum inhibitory concentration (MIC) of the pleuromutilin derivative containing thiazole-pyridine benzyl quaternary ammonium salt side chain was tested with moxifloxacin as a positive control (purchased from Shanghai Macklin Biochemical Technology Co., Ltd.) using a microbroth dilution method. At the same time, the pleuromutilin derivative containing thiazole-pyridine benzyl quaternary ammonium salt side chain of the invention was compared with the marketed pleuromutilin antibiotics, such as retapamulin (purchased from Nanjing Chemlin Chemical Industry Co., Ltd.), tiamulin (purchased from Shanghai Yuanye Bio-Technology Co., Ltd) and valnemulin (purchased from Shanghai Acmec Biochemical Co., Ltd), in order to screen out pleuromutilin derivatives with better activity.
(§2) Clinical resistant bacteria include multidrug-resistant Pseudomonas aeruginosa (MDR-PA) 18-993, 18-756 and 18-126, multidrug-resistant Klebsiella pneumoniae (MDR-KP) 18-893, 18-754 and 18-1482, methicillin-resistant Staphylococcus aureus (MRSA) 18-171, 18-209 and 18-575, vancomycin-resistant Enterococcus faecalis (VRE) 18-94, 18-80 and 18-507, and carbapenem-resistant Acinetobacter baumannii (CR-AB) 18-184, 18-560 and 18-882, all the clinical drug-resistant strains were from Huashan Hospital, Fudan University.

[2] = test system: multidrug-resistant Pseudomonas aeruginosa (MDR-PA) 18-756; assay: MIC, clinical drug-resistant bacteria; conditions: read-out: Minimum inhibitory concentration against clinical drug-resistant bacteria
Experimental: as §1, §2

[3] = test system: carbapenem-resistant Acinetobacter baumannii (CR-AB) 18-184; assay: MIC, clinical drug-resistant bacteria; conditions: read-out: Minimum inhibitory concentration against clinical drug-resistant bacteria
Experimental: as §1, §2

[4] = test system: methicillin-resistant Staphylococcus aureus (MRSA) 18-171; assay: MIC, clinical drug-resistant bacteria; conditions: MRSA, read-out: Minimum inhibitory concentration against clinical drug-resistant bacteria
Experimental: as §1, §2

[5] = test system: vancomycin-resistant Enterococcus faecalis (VRE) 18-80; assay: MIC, clinical drug-resistant bacteria; conditions: read-out: Minimum inhibitory concentration against clinical drug-resistant bacteria
Experimental: as §1, §2

[6] = test system: multidrug-resistant Pseudomonas aeruginosa (MDR-PA) 18-126; assay: MIC, clinical drug-resistant bacteria; conditions: read-out: Minimum inhibitory concentration against clinical drug-resistant bacteria
Experimental: as §1, §2

[7] = test system: multidrug-resistant Klebsiella pneumoniae (MDR-KP) 18-893; assay: MIC, clinical drug-resistant bacteria; conditions: read-out: Minimum inhibitory concentration against clinical drug-resistant bacteria
Experimental: as §1, §2

[8] = test system: methicillin-resistant Staphylococcus aureus (MRSA) 18-575; assay: MIC, clinical drug-resistant bacteria; conditions: MRSA, read-out: Minimum inhibitory concentration against clinical drug-resistant bacteria
Experimental: as §1, §2

[9] = test system: multidrug-resistant Klebsiella pneumoniae (MDR-KP) 18-754; assay: MIC, clinical drug-resistant bacteria; conditions: read-out: Minimum inhibitory concentration against clinical drug-resistant bacteria
Experimental: as §1, §2

[10] = test system: methicillin-resistant Staphylococcus aureus (MRSA) 18-209; assay: MIC, clinical drug-resistant bacteria; conditions: MRSA, read-out: Minimum inhibitory concentration against clinical drug-resistant bacteria
Experimental: as §1, §2

[11] = test system: multidrug-resistant Pseudomonas aeruginosa (MDR-PA) 18-993; assay: MIC, clinical drug-resistant bacteria; conditions: read-out: Minimum inhibitory concentration against clinical drug-resistant bacteria
Experimental: as §1, §2

[12] = test system: carbapenem-resistant Acinetobacter baumannii (CR-AB) 18-882; assay: MIC, clinical drug-resistant bacteria; conditions: read-out: Minimum inhibitory concentration against clinical drug-resistant bacteria
Experimental: as §1, §2

[13] = test system: multidrug-resistant Klebsiella pneumoniae (MDR-KP) 18-1482; assay: MIC, clinical drug-resistant bacteria; conditions: read-out: Minimum inhibitory concentration against clinical drug-resistant bacteria
Experimental: as §1, §2

[14] = test system: vancomycin-resistant Enterococcus faecalis (VRE) 18-94; assay: MIC, clinical drug-resistant bacteria; conditions: read-out: Minimum inhibitory concentration against clinical drug-resistant bacteria
Experimental: as §1, §2

[15] = test system: vancomycin-resistant Enterococcus faecalis (VRE) 18-507; assay: MIC, clinical drug-resistant bacteria; conditions: read-out: Minimum inhibitory concentration against clinical drug-resistant bacteria
Experimental: as §1, §2

Salmonella ATCC 14028 = assay: MIC, microbroth dilution, standard strains
Experimental: (§3) The minimum inhibitory concentration (MIC) of the pleuromutilin derivative containing thiazole-pyridine benzyl quaternary ammonium salt side chain was tested with moxifloxacin as a positive control (purchased from Shanghai Macklin Biochemical Technology Co., Ltd.) using a microbroth dilution method.
(§4) Standard strains include gram-positive bacteria: Staphylococcus epidermidis ATCC 12228, Staphylococcus aureus ATCC 29213, ATCC 25923 and methicillin-resistant Staphylococcus aureus ATCC 33591; gram-negative bacteria: Salmonella ATCC 14028, Acinetobacter baumannii ATCC 19606, Escherichia coli ATCC 25922 and CMCC 44103, all the strains were purchased from the American Type Culture Collection.

[16] = test system: Staphylococcus aureus ATCC 29213; assay: MIC, microbroth dilution, standard strains
Experimental: as §3, §4

[17] = test system: methicillin-resistant Staphylococcus aureus ATCC 33591; assay: MIC, microbroth dilution, standard strains
Experimental: as §3, §4

[18] = test system: Escherichia coli ATCC 25922; assay: MIC, microbroth dilution, standard strains
Experimental: as §3, §4

[19] = test system: Escherichia coli CMCC 44103; assay: MIC, microbroth dilution, standard strains
Experimental: as §3, §4

[20] = test system: Staphylococcus aureus ATCC 25923; assay: MIC, microbroth dilution, standard strains
Experimental: as §3, §4

[21] = test system: Staphylococcus epidermidis ATCC 12228; assay: MIC, microbroth dilution, standard strains
Experimental: as §3, §4

[22] = test system: Acinetobacter baumannii ATCC 19606; assay: MIC, microbroth dilution, standard strains
Experimental: as §3, §4

[23] = ATCC14028, ATCC 14028, read-out: Minimum inhibitory concentration
[24] = ATCC29213, ATCC 29213, read-out: Minimum inhibitory concentration
[25] = ATCC33591, ATCC 33591, read-out: Minimum inhibitory concentration
[26] = ATCC25922, ATCC 25922, read-out: Minimum inhibitory concentration
[27] = CMCC44103, CMCC 44103, read-out: Minimum inhibitory concentration
[28] = ATCC25923, ATCC 25923, read-out: Minimum inhibitory concentration
[29] = ATCC12228, ATCC 12228, read-out: Minimum inhibitory concentration
[30] = ATCC19606, ATCC 19606, read-out: Minimum inhibitory concentration

Structure (SMILES): C=C[C@]1(C)C[C@@H](OC(=O)CS[C@@H]2C[C@H]3CC[C@@H](C2)N3C)[C@]2(C)[C@H](C)CC[C@]3(CCC(=O)[C@H]32)[C@@H](C)[C@@H]1O [Retapamulin, retapamulin, reference compound]
- MIC [1]: 128 µg/mL (≈ 247 µM)
- MIC [2]: > 128 µg/mL
- MIC [3]: 128 µg/mL (≈ 247 µM)
- MIC [4]: 128 µg/mL (≈ 247 µM)
- MIC [5]: > 128 µg/mL
- MIC [6]: 128 µg/mL (≈ 247 µM)
- MIC [7]: 64 µg/mL (≈ 124 µM)
- MIC [8]: > 128 µg/mL
- MIC [9]: 128 µg/mL (≈ 247 µM)
- MIC [10]: 128 µg/mL (≈ 247 µM)
- MIC [11]: 128 µg/mL (≈ 247 µM)
- MIC [12]: 64 µg/mL (≈ 124 µM)
- MIC [13]: 64 µg/mL (≈ 124 µM)
- MIC [14]: > 128 µg/mL
- MIC [15]: > 128 µg/mL
- MIC (Salmonella ATCC 14028; ATCC14028, read-out: Minimum inhibitory concentration): 128 µg/mL (≈ 247 µM)
- MIC ([16]; ATCC29213, read-out: Minimum inhibitory concentration): 4 µg/mL (≈ 7.73 µM)
- MIC ([17]; ATCC33591, read-out: Minimum inhibitory concentration): 32 µg/mL (≈ 61.8 µM)
- MIC ([18]; ATCC25922, read-out: Minimum inhibitory concentration): 32 µg/mL (≈ 61.8 µM)
- MIC ([19]; CMCC44103, read-out: Minimum inhibitory concentration): 32 µg/mL (≈ 61.8 µM)
- MIC ([20]; ATCC25923, read-out: Minimum inhibitory concentration): 4 µg/mL (≈ 7.73 µM)
- MIC ([21]; ATCC12228, read-out: Minimum inhibitory concentration): 32 µg/mL (≈ 61.8 µM)
- MIC ([22]; ATCC19606, read-out: Minimum inhibitory concentration): 16 µg/mL (≈ 30.9 µM)

Structure (SMILES): C=C[C@]1(C)C[C@@H](OC(=O)CSc2nc(-c3cc[n+](Cc4ccc(Br)cc4)cc3)cs2)[C@]2(C)[C@H](C)CC[C@]3(CCC(=O)[C@H]32)[C@@H](C)[C@@H]1O [Compound 11, 1-(4-bromobenzyl)-4-(2-(8-hydroxy-4,7,9,12-tetramethyl-3-oxo-7-vinyldecahydro-4,9a-propancyclopent[8]cyclen-5-yl)oxy)-2-oxoethyl)thiazol-4-yl)pyridyl bromide salt]
- MIC (Salmonella ATCC 14028; [23]): 4 µg/mL
- MIC [16, 24]: 0.5 µg/mL
- MIC [17, 25]: 2 µg/mL
- MIC [18, 26]: 2 µg/mL
- MIC [19, 27]: 0.5 µg/mL
- MIC [20, 28]: 1 µg/mL
- MIC [21, 29]: 2 µg/mL
- MIC [22, 30]: 2 µg/mL

Structure (SMILES): C=C[C@]1(C)C[C@@H](OC(=O)CSc2nc(-c3cc[n+](Cc4ccc(C(C)(C)C)cc4)cc3)cs2)[C@]2(C)[C@H](C)CC[C@]3(CCC(=O)[C@H]32)[C@@H](C)[C@@H]1O [Compound 6, 1-(4-(tert-butyl)benzyl)-4-(2-(8-hydroxy-4,7,9,12-tetramethyl-3-oxo-7-vinyldecahydro-4,9a-propancyclopent[8]cyclen-5-yl)oxy)-2-oxoethyl)thiazol-4-yl)pyridyl bromide salt]
- MIC (Salmonella ATCC 14028; [23]): 2 µg/mL
- MIC [16, 24]: 0.25 µg/mL
- MIC [17, 25]: 1 µg/mL
- MIC [18, 26]: 2 µg/mL
- MIC [19, 27]: 2 µg/mL
- MIC [20, 28]: 0.5 µg/mL
- MIC [21, 29]: 2 µg/mL
- MIC [22, 30]: 2 µg/mL
